Assay results reported in the NIST ThermoML archive (doi:10.1016/j.jct.2016.09.040).

Assay: mn = molality of the nth substance listed, in mol/kg
Conditions: 75 kPa, Liquid; for viscosity: Capillary tube (Ostwald / Ubbelohde) method; for speed of sound: Frequency=3 MHz, Sing-around technique in a fixed-path interferometer; for mass density: Vibrating tube method

CCC(N)C(=O)O (stereo not drawn) [(.+-.)-α-aminobutyric acid] + O
Conditions	mass density [kg/m3]	speed of sound [m/s]	viscosity [mPa·s]
293.15 K, m1 = 0.09999	1001.01	1490.7	1.042
293.15 K, m1 = 0.2999	1006.4	1506.8	1.109
293.15 K, m1 = 0.4999	1011.57	1522.6	1.181
293.15 K, m1 = 0.7	1016.56	1538.5	1.266
293.15 K, m1 = 0.9001	1021.37	1554.2	1.358
293.15 K, m1 = 1	1023.7	1561.8	1.416
298.15 K, m1 = 0.09999	999.805	1504.7	0.905
298.15 K, m1 = 0.2999	1005.12	1519.9	0.97
298.15 K, m1 = 0.4999	1010.25	1535.1	1.057
298.15 K, m1 = 0.7	1015.2	1550	1.121
298.15 K, m1 = 0.9001	1019.98	1565.1	1.199
298.15 K, m1 = 1	1022.3	1572.4	1.243
303.15 K, m1 = 0.09999	998.37	1516.8	0.813
303.15 K, m1 = 0.2999	1003.66	1531.3	0.869
303.15 K, m1 = 0.4999	1008.75	1545.8	0.93
303.15 K, m1 = 0.7	1013.66	1560	0.997
303.15 K, m1 = 0.9001	1018.4	1574.5	1.061
303.15 K, m1 = 1	1020.7	1581.7	1.097
308.15 K, m1 = 0.09999	996.759	1526.9	0.731
308.15 K, m1 = 0.2999	1002	1540.8	0.781
308.15 K, m1 = 0.4999	1007.05	1554.7	0.834
308.15 K, m1 = 0.7	1011.92	1568.6	0.891
308.15 K, m1 = 0.9001	1016.62	1582.5	0.949
308.15 K, m1 = 1	1018.9	1589.5	0.979
313.15 K, m1 = 0.09999	994.9	1535.7	0.661
313.15 K, m1 = 0.2999	999.99	1548.7	0.706
313.15 K, m1 = 0.4999	1004.83	1561.8	0.754
313.15 K, m1 = 0.7	1009.41	1574.7	0.804
313.15 K, m1 = 0.9001	1013.72	1588	0.853
313.15 K, m1 = 1	1015.78	1595.1	0.895
